Test results: paper PMC3251870 (British Journal of Cancer, 2011)

Assays:
Melanocytes = assay: MTS cell viability, primary melanocytes; format: cell-based, human; details: 4 days
Description: (§1) All human cancer cell lines were maintained in RPMI media supplemented with 5% (lung and breast cancer cells) or 10% (melanoma cells) fetal bovine serum. […] Human mammary epithelial cells immortalised with telomerase were maintained in complete MEGM media from Cambrex (East Rutherford, NJ, USA).
(§2) Absorbance at 490 and 650 nm (reference wavelength) was measured by a Spectra Max (Molecular Devices, Sunnyvale, CA, USA) or a FlouroStar Omega (BMG Biosciences, Ortenberg, Germany) plate reader. Data were normalised to the untreated controls (100% viability). Each cell line was tested in 1–5 independent assays, each containing 4–8 replicates. IC50 values were calculated using DIVISA, a high-throughput software, developed in-house (manuscript in preparation), for storing and analysing drug sensitivity assays. Dose–response curves were plotted using a non-linear regression model and IC50s were determined from the fitted curves.

[1] = system: OCM3 uveal melanoma cells; assay: MTS cell viability, OCM3; format: cell-based, human; details: 4 days
Description: as §1, §2

[2] = system: histone 3 trimethylated at lysine 9 in H358 cells; assay: Western blot, histone 3 lysine 9 trimethylation; format: cell-based, human
Description: (§3) Exponentially growing cells were treated with the appropriate compounds and harvested 4 or 24 h later in a standard nuclear lysis buffer and whole cell lysates were quantified. Equal amounts of total protein were loaded onto 4–12% Bis-Tris SDS gels and subjected to electrophoresis. After transferring onto nitrocellulose membranes, blots were probed for acetylated tubulin (Sigma, St Louis, MO, USA; T6793), acetylated histone 3 (Millipore/Upstate #06-599), acetylated histone 4 (Millipore/Upstate #07-329) or trimethylated histone 3 at lysine 9 (Millipore/Upstate #07-523). Actin (Santa Cruz, Santa Cruz, CA, USA; #1616) and HDAC1 (Affinity Bioreagents, Rockford, IL, USA; #PA1-860) were probed as loading controls. Quantification of bands in films was performed using two independent methods, which yielded similar results, Image J (NIH public software) and Quantity one (Bio-Rad, Hercules, CA, USA). The average of the two methods±s.e.m. is shown as specified in figure legends. For the MDR western analysis, a primary antibody against P-glycoprotein from Calbiochem (Darmstadt, Germany) was used according to the manufacturer's recommendations and HSP90 (Santa Cruz) was used as a loading control.

[3] = system: HBEC30KT human bronchial epithelial cells; assay: MTS cell viability, HBEC30KT; format: cell-based; details: HBEC30KT (normal, matched to HCC4017), 4 days
Description: as §1, §2

HCC366 cells = assay: MTS cell viability, HCC366; format: cell-based, human; details: HCC366 NSCLC, 4 days
Description: as §1, §2

SKMEL2 melanoma cells = assay: MTS cell viability, SKMEL2; format: cell-based, human; details: SKMEL2 melanoma, MTS, 4 days
Description: as §1, §2

MCF-10 cells = assay: MTS cell viability, MCF-10; format: cell-based, human; details: MCF-10, MTS, 4 days
Description: as §1, §2

[4] = system: histone 4 acetylation in H358 cells; assay: Western blot, acetylated histone 4; format: cell-based, human; details: 4 h
Description: as §3

[5] = system: HCC4018 lung cancer cells; assay: MTS cell viability, HCC4018; format: cell-based, human; details: HCC4018 (lung cancer, matched to HBEC34KT), MTS, 4 days
Description: as §1, §2

A549 cells = assay: MTS cell viability, A549; format: cell-based, human; details: A549 NSCLC, 4 days
Description: as §1, §2

[6] = system: 1585T immortalised normal human mammary epithelial cells; assay: MTS cell viability, 1585T; format: cell-based; details: 4 days
Description: as §1, §2

[7] = system: OMM2.3 uveal melanoma cells; assay: MTS cell viability, OMM2.3; format: cell-based, human; details: 4 days
Description: as §1, §2

[8] = system: HBEC15KT human bronchial epithelial cells; assay: MTS cell viability, HBEC15KT; format: cell-based; details: 4 days
Description: as §1, §2

[9] = system: HBEC34KT human bronchial epithelial cells; assay: MTS cell viability, HBEC34KT; format: cell-based; details: HBEC34KT (normal, matched to HCC4018), 4 days
Description: as §1, §2

HCC15 cells = assay: MTS cell viability, HCC15; format: cell-based, human; details: HCC15 NSCLC, MTS, 4 days
Description: as §1, §2

HCC1954 cells = assay: MTS cell viability, HCC1954; format: cell-based, human; details: HCC1954 breast cancer line, 4 days
Description: as §1, §2

[10] = system: total HDAC activity, C127 cell extracts; assay: Total HDAC activity in cell extracts treated in vitro; format: biochemical
Source text: HDAC2 was purified as described below.

[11] = system: HCC4017 lung cancer cells; assay: MTS cell viability, HCC4017; format: cell-based, human; details: HCC4017 (lung cancer, matched to HBEC30KT), MTS, 4 days
Description: as §1, §2

UACC257 melanoma cells = assay: MTS cell viability, UACC257; format: cell-based, human; details: 4 days
Description: as §1, §2

H1299 cells = assay: MTS cell viability, H1299; format: cell-based, human; details: H1299 NSCLC, 4 days
Description: as §1, §2

SKMEL5 melanoma cells = assay: MTS cell viability, SKMEL5; format: cell-based, human; details: 4 days
Description: as §1, §2

[12] = system: HBEC16KT human bronchial epithelial cells; assay: MTS cell viability, HBEC16KT; format: cell-based; details: 4 days
Description: as §1, §2

H292 cells = assay: MTS cell viability, H292; format: cell-based, human; details: H292 NSCLC, 4 days
Description: as §1, §2

[13] = system: MEL270 uveal melanoma cells; assay: MTS cell viability, MEL270; format: cell-based, human; details: 4 days
Description: as §1, §2

H2073 cells = assay: MTS cell viability, H2073; format: cell-based, human; details: H2073 NSCLC, MTS, 4 days
Description: as §1, §2

[14] = system: histone 3 acetylation in H358 cells; assay: Western blot, acetylated histone 3; format: cell-based, human; details: 24 h
Description: as §3

HCC1806 cells = assay: MTS cell viability, HCC1806; format: cell-based, human; details: HCC1806 breast cancer line, 4 days
Description: as §1, §2

H358 cells = assay: MTS cell viability, H358; format: cell-based, human; details: H358 NSCLC, 4 days
Description: as §1, §2

SKMEL28 melanoma cells = assay: MTS cell viability, SKMEL28; format: cell-based, human; details: 4 days
Description: as §1, §2

H2086 cells = assay: MTS cell viability, H2086; format: cell-based, human; details: H2086 NSCLC, 4 days
Description: as §1, §2

MCF-7 cells = assay: MTS cell viability, MCF-7; format: cell-based, human; details: 4 days; for IC50: MCF-7 breast cancer line
Description: as §1, §2

H1395 cells = assay: MTS cell viability, H1395; format: cell-based, human; details: H1395 NSCLC, 4 days
Description: as §1, §2

| SMILES | IC50 (Melanocytes) [nM] | IC50 [1] [nM] | IC50 [3] [nM] | IC50 (HCC366 cells) [nM] | IC50 (SKMEL2 melanoma cells) [nM] | IC50 (MCF-10 cells) [nM] | IC50 [5] [nM] | IC50 (A549 cells) [nM] | IC50 [6] [nM] | IC50 [7] [nM] | IC50 [8] [nM] | IC50 [9] [nM] | IC50 (HCC15 cells) [nM] | IC50 (HCC1954 cells) [nM] | IC50 [11] [nM] | IC50 (UACC257 melanoma cells) [nM] | IC50 (H1299 cells) [nM] | IC50 (SKMEL5 melanoma cells) [nM] | IC50 [12] [nM] | IC50 (H292 cells) [nM] | further results |
| --- | --- | --- | --- | --- | --- | --- | --- | --- | --- | --- | --- | --- | --- | --- | --- | --- | --- | --- | --- | --- | --- |
| C/C=C1\NC(=O)[C@H]2CSSCC/C=C/[C@H](CC(=O)N[C@H](C(C)C)C(=O)N2)OC(=O)[C@H](C(C)C)NC1=O [Depsipeptide, depsipeptide] | 0.9 | 1.5 | 0.9 | 3.1 | 0.4 | 2.4 | 4.2 | 2 | 1.3 | 2.7 | 2.5 | 1.3 | 6.4 | 1.5 | 6.5 | 1.6 | 12.1 | 1.5 | 4.9 | 0.7 | global level of histone 3 trimethylated at lysine 9 ([2]; 25 nM): reproducibly decreased; global level of histone 4 acetylation ([4]; 25 nM): globally increased; inhibition of total HDAC activity in cell extracts treated in vitro ([10]; 20 nM): partly inhibited; IC50 [13]: 1.8 nM; IC50 (H2073 cells): 37.1 nM; global level of histone 3 acetylation ([14]; 25 nM): globally increased; IC50 (HCC1806 cells): 1.8 nM; IC50 (H358 cells): 1.1 nM; IC50 (SKMEL28 melanoma cells): 0.8 nM; IC50 (H2086 cells): 3.8 nM; surviving population (MCF-7 cells; MCF7 cells): 30–40%; IC50 (MCF-7 cells): 4.2 nM; IC50 (H1395 cells): 5.3 nM |
| CC(/C=C/C(=O)NO)=C\[C@@H](C)C(=O)c1ccc(N(C)C)cc1 [TSA, trichostatin A] | 284 | 220 | 285 | 147 | 336 | 96 | 23 | 39.7 | 124 | 81 | 295 | 346 | 7.9 | 91 | 73 | 222 | 150 | 66 | 260 | 22.5 | global level of histone 3 trimethylated at lysine 9 ([2]; 200 nM): no effect; global level of histone 4 acetylation ([4]; 200 nM): globally increased; inhibition of total HDAC activity in cell extracts treated in vitro ([10]; 150 nM): blocked; IC50 [13]: 68 nM; IC50 (H2073 cells): 63.7 nM; global level of histone 3 acetylation ([14]; 200 nM): globally increased; IC50 (HCC1806 cells): 41 nM; IC50 (H358 cells): 40 nM; IC50 (SKMEL28 melanoma cells): 400 nM; IC50 (H2086 cells): 275 nM; IC50 (MCF-7 cells): 90 nM; IC50 (H1395 cells): 41 nM |
